Among the test systems are KM12 colon; EKVX NSCLC; UACC-62 melanoma; NCI-H522 lung; SN12C renal; OVCAR-5 ovarian; MOLT-4 leukemia; COLO 205 colon; DLD-1 colon; SF-268 CNS; HCC-2998 colon; NCI/ADR-RES ovarian; K-562 leukemia; UACC-257 melanoma; TK-10 renal; M14 melanoma.
Holding throughout (test): DTP human tumour cell line panel, 48 h

Consider ten compounds from PubChem BioAssay (NCI).

As usually defined, the TGI is the concentration giving total growth inhibition. One may read the GI50 as the concentration giving 50% growth inhibition.

Structures are written as SMILES. “And” between values parts separate entries of the source, which are not always exact repeats. Identical values can stand only once.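 Method: 48-hour compound exposure of cells in 96-well plates, five concentrations, linear interpolation of endpoints. GI50 is the concentration that inhibits growth by half. The concentration for full growth arrest is given as TGI.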 Some results are limits rather than exact numbers.

Turning to `OCC#CCNCl`, the TGI with KM12 colon, with EKVX NSCLC, with UACC-62 melanoma, in the test with NCI-H522 lung, in the test with SN12C renal and in the test on OVCAR-5 ovarian was > 100 µM each time. In addition, the TGI with MOLT-4 leukemia, in the test on COLO 205 colon, with DLD-1 colon, with SF-268 CNS, in the test with HCC-2998 colon and in the test with NCI/ADR-RES ovarian was > 100 µM in each case. The TGI in the test with K-562 leukemia and with UACC-257 melanoma was > 100 µM in each case.
Consider `O=[N+]([O-])C(=C/c1ccccc1)/C(=C\c1ccccc1)[N+](=O)[O-]`, for which the TGI in the test with KM12 colon amounted to 29 µM; in the test on EKVX NSCLC it was 34 µM; in the test with UACC-62 melanoma, 30.7 µM; in the test with TK-10 renal, 29.6 µM; in the test on SN12C renal it was 49.4 µM; in the test on OVCAR-5 ovarian it was 46.6 µM. The TGI in the test on MOLT-4 leukemia was 19.5 µM; in the test with COLO 205 colon, 40 µM; with SF-268 CNS it was 50 µM; with HCC-2998 colon it was 36 µM; with NCI/ADR-RES ovarian, 42.8 µM; in the test on M14 melanoma, 41.6 µM. For the same compound, the TGI in the test on K-562 leukemia was > 100 µM; in the test with UACC-257 melanoma, 32.1 µM.
As for `CCNC(=O)C(C)C1CCC2(C)C=CC(=O)C(C)=C2C1O` (centres undefined), the TGI in the test on KM12 colon, in the test with EKVX NSCLC, in the test with UACC-62 melanoma, in the test on NCI-H522 lung, in the test on SN12C renal and in the test on OVCAR-5 ovarian was > 100 µM in each case. For the same compound, the total growth inhibition concentration (TGI) in the test on MOLT-4 leukemia, in the test with COLO 205 colon, in the test with DLD-1 colon, in the test on SF-268 CNS, in the test on HCC-2998 colon and with NCI/ADR-RES ovarian was > 100 µM in each case. Besides, the TGI in the test with K-562 leukemia and in the test with UACC-257 melanoma was > 100 µM each time.
`CN(C)CCNc1ccc2ncn3c4ccccc4c(=O)c1c23`: the TGI was found to be 13.3 µM in the test with KM12 colon; 12.3 µM in the test with UACC-62 melanoma; 5.41 µM in the test with NCI-H522 lung; 46.7 µM with TK-10 renal; 38.4 µM in the test with SN12C renal; 5.35 µM in the test with OVCAR-5 ovarian. Besides, the TGI in the test with MOLT-4 leukemia is > 100 µM; in the test on COLO 205 colon, 4.03 µM; in the test with DLD-1 colon, 12.8 µM; in the test on SF-268 CNS, 20.2 µM; in the test with M14 melanoma, 13.7 µM; in the test with K-562 leukemia, > 100 µM. Moreover, the TGI in the test on UACC-257 melanoma was 11.5 µM.
`O=C1OC(c2ccccc2)=NC1c1ccccc1` (centres undefined): the TGI with KM12 colon, with EKVX NSCLC, with UACC-62 melanoma, in the test on NCI-H522 lung, with TK-10 renal and in the test on SN12C renal was > 100 µM in each case. For the same compound, the TGI in the test with OVCAR-5 ovarian, with MOLT-4 leukemia, with COLO 205 colon, in the test with SF-268 CNS, in the test with HCC-2998 colon and in the test on NCI/ADR-RES ovarian was > 100 µM throughout. In addition, the TGI in the test with M14 melanoma, with K-562 leukemia and in the test on UACC-257 melanoma was > 100 µM throughout.
With `COc1ccccc1/C=C(/C)[N+](=O)[O-]`, the TGI in the test on KM12 colon is 10.2 µM and 3.46 µM; in the test with EKVX NSCLC, 20.1 µM and 12.3 µM; with UACC-62 melanoma, 3.93 µM and 3.12 µM; in the test with NCI-H522 lung it was 2.91 µM and 3.2 µM; with TK-10 renal it was 13 µM and 4.21 µM; with SN12C renal, 4.96 µM and 4.41 µM. For the same compound, the TGI was 13.4 µM and 27.3 µM in the test on OVCAR-5 ovarian; 0.598 µM and 1.5 µM with MOLT-4 leukemia; 10.3 µM with COLO 205 colon; 30.4 µM and 4.94 µM in the test with SF-268 CNS; 8.69 µM in the test on NCI/ADR-RES ovarian; 25.6 µM and 2.78 µM with M14 melanoma. The TGI is 5.15 µM and 7.34 µM in the test with K-562 leukemia; 3.4 µM and 3.53 µM in the test on UACC-257 melanoma. Besides, the GI50 is 2.89 µM and 6.42 µM in the test on OVCAR-5 ovarian; 5.87 µM and 2.18 µM in the test with SF-268 CNS; 0.688 µM and 1.71 µM in the test with K-562 leukemia.
`FC(F)(F)c1ccc2c(c1)N(CCCNCCN1CCOCC1)c1ccccc1S2`: the TGI in the test on KM12 colon was 25 µM; with EKVX NSCLC it was 29.4 µM; in the test on UACC-62 melanoma it was 27.8 µM; with NCI-H522 lung, 30.6 µM; in the test on TK-10 renal, 25.4 µM; in the test on SN12C renal, 26.9 µM. For the same compound, the TGI in the test with OVCAR-5 ovarian was 23.4 µM; in the test on MOLT-4 leukemia, 20.1 µM; in the test on COLO 205 colon, 6.84 µM; in the test with DLD-1 colon, 33.7 µM; in the test on SF-268 CNS, 37.2 µM; with HCC-2998 colon, 4.06 µM. Also, the values for the TGI in the test with M14 melanoma, in the test on K-562 leukemia and with UACC-257 melanoma were 4.13 µM, 10.2 µM and 23.3 µM, respectively.
Consider `CC(C)=CCCC(C)(OC1OC(CO)C(O)C(O)C1O)C1CCC2(C)C1C(O)CC1C3(C)CCC(O)C(C)(C)C3C(OC3OC(CO)C(O)C(O)C3OC3OC(C)C(O)C(O)C3O)CC12C` (centres undefined) (tested in a mixture with another compound), for which the TGI with KM12 colon, in the test on EKVX NSCLC, with UACC-62 melanoma, in the test with NCI-H522 lung, with TK-10 renal and in the test with SN12C renal was > 75 µM throughout. The TGI with OVCAR-5 ovarian, in the test on MOLT-4 leukemia, in the test on COLO 205 colon, in the test on SF-268 CNS, in the test with HCC-2998 colon and in the test on NCI/ADR-RES ovarian was > 75 µM in each case. Moreover, the TGI in the test on M14 melanoma, in the test on K-562 leukemia and with UACC-257 melanoma was > 75 µM in each case.
For the compound `O=C(NN1C(=O)C(Cl)C1c1ccccc1O)c1ccccc1O` (centres undefined), the TGI in the test on KM12 colon, with EKVX NSCLC, in the test with UACC-62 melanoma, in the test with NCI-H522 lung, in the test on TK-10 renal and with SN12C renal was > 100 µM in each case. The TGI with MOLT-4 leukemia, in the test on COLO 205 colon, with SF-268 CNS, with M14 melanoma, with K-562 leukemia and with UACC-257 melanoma was > 100 µM in each case.
As to `CCOC(=O)Cc1cc(OC)c(OC)cc1/C(Cl)=C(\CO)c1ccc(OC)c(OC)c1`, the TGI in the test on EKVX NSCLC, with UACC-62 melanoma, in the test with TK-10 renal, in the test on SN12C renal, in the test on MOLT-4 leukemia and in the test on COLO 205 colon was > 100 µM each time. Also, the TGI with DLD-1 colon, in the test on M14 melanoma, in the test with K-562 leukemia and with UACC-257 melanoma was > 100 µM each time.
